Measurements taken from patent US8053416B2, “Isolation and structure of turbostatins 1-4” (Arizona Board of Regents, a body corporate of the State of …, priority 2005, dated 2011).
Each block holds one compound with its values, some of them ahead of it.

Legend:
[1] = tested on: murine P388 lymphocytic leukemia (in vivo); details: dose levels from 4.0 to 800 mg/kg, 123 = 23% increase in median survival time; cited from earlier work
[2] = tested on: in vivo L-1210 lymphoid leukemia; details: cited from earlier work
[3] = tested on: human epidermoid carcinoma of the nasopharynx (KB) cell line; details: cited from earlier work
[4] = tested on: murine P388 lymphocytic leukemia cell line; assay: Murine P388 lymphocytic leukemia cell line growth inhibition; type: cell-based; details: in DMSO
Description: (§1) Cancer Cell Line Methods. The National Cancer Institute's standard sulforhodamine B assay was used to assess inhibition of human cancer cell growth. The murine P388 lymphocytic leukemia cell line results were obtained using 10% horse serum/Fisher medium with incubation for 24 hours.

[5] = tested on: BXPC-3 (pancreas adenocarcinoma); assay: NCI sulforhodamine B human cancer cell growth inhibition, BXPC-3; type: cell-based; details: in DMSO
Description: as §1

[6] = tested on: MCF-7 (breast adenocarcinoma); assay: NCI sulforhodamine B human cancer cell growth inhibition, MCF-7; type: cell-based; details: in DMSO
Description: as §1

SF268 (CNS glioblastoma) = assay: NCI sulforhodamine B human cancer cell growth inhibition, SF268; type: cell-based; details: in DMSO
Description: as §1

[7] = tested on: NCI-H460 (lung large cell); assay: NCI sulforhodamine B human cancer cell growth inhibition, NCI-H460; type: cell-based; details: in DMSO
Description: as §1

[8] = tested on: KML20L2 (colon adenocarcinoma); assay: NCI sulforhodamine B human cancer cell growth inhibition, KML20L2; type: cell-based; details: in DMSO
Description: as §1

[9] = tested on: DU-145 (prostate carcinoma); assay: NCI sulforhodamine B human cancer cell growth inhibition, DU-145; type: cell-based; details: in DMSO
Description: as §1

Structure (SMILES): NCCS(=O)(=O)O [taurine]
T/C [1]: ≤ 123
Activity against in vivo L-1210 lymphoid leukemia [2]: inactive
Activity against KB cell line [3]: inactive

Cell line inhibition value GI50 [4]: 0.15 µg/mL
Structure (SMILES): CCCCCCCCCCC/C=C/[C@@H](O)[C@H](CO[C@@H]1O[C@H](CO)[C@@H](O)[C@H](O)[C@H]1O)NC(=O)CCCCCCCCCCCCCCCCC [Compound 2, 1-O-β-D-glucopyranosyl-2S-octadecanoylamino-3R-hydroxy-4E-hexadecene]
Cell line inhibition value GI50 [5]: 1.0 µg/mL
Cell line inhibition value GI50 [6]: 0.39 µg/mL
Cell line inhibition value GI50 (SF268 (CNS glioblastoma)): 1.9 µg/mL
Cell line inhibition value GI50 [7]: 0.53 µg/mL
Cell line inhibition value GI50 [8]: 0.35 µg/mL
Cell line inhibition value GI50 [9]: 1.7 µg/mL

Cell line inhibition value GI50 [4]: 0.27 µg/mL
Structure (SMILES): CCCCCCCCCCC/C=C/[C@@H](O)[C@H](CO[C@@H]1O[C@H](CO)[C@@H](O)[C@H](O)[C@H]1O)NC(=O)CCCCCCCCCCCCCCC [Compound 1, 1-O-β-D-glucopyranosyl-2S-hexadecanoylamino-3R-hydroxy-4E-hexadecene]
Cell line inhibition value GI50 [5]: 0.71 µg/mL
Cell line inhibition value GI50 [6]: 0.44 µg/mL
Cell line inhibition value GI50 (SF268 (CNS glioblastoma)): 0.98 µg/mL
Cell line inhibition value GI50 [7]: 0.34 µg/mL
Cell line inhibition value GI50 [8]: 0.35 µg/mL
Cell line inhibition value GI50 [9]: 1.6 µg/mL

Cell line inhibition value GI50 [4]: 0.29 µg/mL
Structure (SMILES): CCCCCCCCCCC/C=C/[C@@H](O)[C@H](CO[C@@H]1O[C@H](CO)[C@H](O)[C@H](O)[C@H]1O)NC(=O)CCCCCCCCCCCCCCCCC [Compound 4, 1-O-β-D-galactopyranosyl-2S-octadecanoylamino-3R-hydroxy-4E-hexadecene]
Cell line inhibition value GI50 [5]: 0.93 µg/mL
Cell line inhibition value GI50 [6]: 0.44 µg/mL
Cell line inhibition value GI50 (SF268 (CNS glioblastoma)): 1.5 µg/mL
Cell line inhibition value GI50 [7]: 0.49 µg/mL
Cell line inhibition value GI50 [8]: 0.41 µg/mL
Cell line inhibition value GI50 [9]: 2.6 µg/mL

Cell line inhibition value GI50 [4]: 0.25 µg/mL
Structure (SMILES): CCCCCCCCCCC/C=C/[C@@H](O)[C@H](CO[C@@H]1O[C@H](CO)[C@H](O)[C@H](O)[C@H]1O)NC(=O)CCCCCCCCCCCCCCC [Compound 3, 1-O-β-D-galactopyranosyl-2S-hexadecanoylamino-3R-hydroxy-4E-hexadecene]
Cell line inhibition value GI50 [5]: 1.6 µg/mL
Cell line inhibition value GI50 [6]: 0.48 µg/mL
Cell line inhibition value GI50 (SF268 (CNS glioblastoma)): 1.9 µg/mL
Cell line inhibition value GI50 [7]: 0.55 µg/mL
Cell line inhibition value GI50 [8]: 0.48 µg/mL
Cell line inhibition value GI50 [9]: 2.6 µg/mL
